Patent publication US11633420B2, “Method of treating leukemia” (Epizyme, Inc., priority 2012, dated 2023)

Assays:
MV4-11 xenograft tumors = assay: In vivo anti-proliferative assay, mouse xenograft model of MLL-rearranged leukemia; details: 21 days
Description: In Vivo Anti-Proliferative Assay. The in vivo anti-tumor activity of the compounds of the present invention were assessed in a mouse xenograft model of MLL-rearranged leukemia. Four groups of 20 (Groups 1, 3, 4 and 5), and one group of 8 (Group 2) female nude mice (average weight of 0.023 kg) bearing MV4-11 xenograft tumors of sizes ranging from 80-120 mm^3 were implanted subcutaneously with minipumps (Alzet Model 2001). Group 1 received vehicle only from the pump. Group 2 received vehicle only from the pump plus ip injections tid (8 hours apart) of vehicle. […] Pumps were designed to last for 7 days and were exchanged twice to give total infusion duration of 21 days exposure. […] Blood samples were taken from Group 3 on days 7 and 14 at the following time points (3 animals per time point): 5 minutes pre-ip dose, and 15 min, 30 min, 1, 2, and 4 hours post ip dose. On day 21 three hours after the last ip injection, a single blood sample was taken from Group 3. Tumor size was measured every 4 days. After 21 days the study was terminated, and mean TGI calculated.

MOLM-13 (MLL-AF9) cells = assay: In vitro anti-proliferative assay, MOLM-13; assay type: cell-based, human; details: up to 14 days
Description: (§1) In Vitro Anti-Proliferative Assay. The potency and selectivity of the anti-proliferative activity of the compounds of the present invention were assessed using a panel of MLL-rearranged and non-MLL-rearranged human leukemia cell lines. The MLL-rearranged panel included cell lines derived from ALL, AML and biphenotypic leukemias harboring MLL-AF4, MLL-AF9 or MLL-ENL fusions. These cell lines recruit DOT1L.
(§2) Exponentially growing cells were plated, in triplicate, in 96-well plates at a density of 3×10^4 cells/well in a final volume of 150 μl. […] Anti-proliferative activity was determined by cell viability measurements every 3-4 days for up to 14 days.

EOL-1 cells (MLL-PTD) = assay: In vitro anti-proliferative assay, EOL-1; assay type: cell-based; details: Homo sapiens, EOL1, 336 h; EOL-1 (MLL-PTD), up to 14 days
Description: as §1, §2

MV4;11 (MLL-AF4) cells = assay: In vitro anti-proliferative assay, MV4;11; assay type: cell-based, human; details: up to 14 days
Description: as §1, §2

KOPN-8 (MLL-ENL) cells = assay: In vitro anti-proliferative assay, KOPN-8; assay type: cell-based, human; details: up to 14 days
Description: as §1, §2

[1] = test system: Jurkat cells (non-MLL-rearranged); assay: In vitro anti-proliferative assay, Jurkat; assay type: cell-based, human; details: up to 14 days
Description: as §1, §2

[2] = test system: HL-60 cells (non-MLL-rearranged); assay: In vitro anti-proliferative assay, HL-60; assay type: cell-based, human; details: HL-60, up to 14 days
Description: as §1, §2

CC(C)N(C[C@H]1O[C@@H](n2cnc3c(N)ncnc32)[C@H](O)[C@@H]1O)[C@H]1C[C@@H](CCc2nc3cc(C(C)(C)C)ccc3[nH]2)C1 [Compound 2, (2R,3R,4S,5R)-2-(6-amino-9H-purin-9-yl)-5-((((1r,3S)-3-(2-(5-(tert-butyl)-1H-benzo[d]imidazol-2-yl)ethyl)cyclobutyl)(isopropyl)amino)methyl)tetrahydrofuran-3,4-diol]
TGI compared to controls (MV4-11 xenograft tumors; 56 mg/kg/day minipump, non-statistically significant): 43%
TGI compared to controls (MV4-11 xenograft tumors; 112 mg/kg/day minipump, non-statistically significant): 38%
TGI compared to controls (MV4-11 xenograft tumors; Group 3: 112 mg/kg/day minipump plus ip 20 mg/kg tid (172 mg/kg/day), statistically significant): > 70%
anti-proliferative activity (IC50) (MOLM-13 (MLL-AF9) cells): potent nanomolar anti-proliferative activity
IC50 (EOL-1 cells (MLL-PTD)): 11 nM
anti-proliferative activity (IC50) (MV4;11 (MLL-AF4) cells): potent nanomolar anti-proliferative activity
anti-proliferative activity (IC50) (KOPN-8 (MLL-ENL) cells): potent nanomolar anti-proliferative activity
anti-proliferative activity [1]: no activity
anti-proliferative activity [2]: no activity
